In EP2928896B1, “SOLID FORM OF DIHYDRO-PYRIDO-OXAZINE DERIVATIVE” (NOVARTIS AG, priority 2012, dated 2014):

What was measured:
PI3K alpha = PI3K alpha (Homo sapiens, UniProt P42336); experiment: Enzymatic PI3K alpha isoform inhibition (lipid kinase activity, Kinase-Glo luminescence / ATP depletion); format: biochemical
Text: The reaction is started by the addition of PI3 kinase, e.g. PI3 kinase δ.
The reaction is started by the addition of ATP.

PI3Kδ = target: T1, PI3Kδ (Homo sapiens, UniProt O00329); experiment: PI3K-mediated Akt 1/2 (S473) phosphorylation in Rat-1 cells overexpressing myristoylated PI3K delta (AlphaScreen SureFire); format: cell-based
T1 construct: expressed in transfected cells
T1 sequence (O00329 1-1044): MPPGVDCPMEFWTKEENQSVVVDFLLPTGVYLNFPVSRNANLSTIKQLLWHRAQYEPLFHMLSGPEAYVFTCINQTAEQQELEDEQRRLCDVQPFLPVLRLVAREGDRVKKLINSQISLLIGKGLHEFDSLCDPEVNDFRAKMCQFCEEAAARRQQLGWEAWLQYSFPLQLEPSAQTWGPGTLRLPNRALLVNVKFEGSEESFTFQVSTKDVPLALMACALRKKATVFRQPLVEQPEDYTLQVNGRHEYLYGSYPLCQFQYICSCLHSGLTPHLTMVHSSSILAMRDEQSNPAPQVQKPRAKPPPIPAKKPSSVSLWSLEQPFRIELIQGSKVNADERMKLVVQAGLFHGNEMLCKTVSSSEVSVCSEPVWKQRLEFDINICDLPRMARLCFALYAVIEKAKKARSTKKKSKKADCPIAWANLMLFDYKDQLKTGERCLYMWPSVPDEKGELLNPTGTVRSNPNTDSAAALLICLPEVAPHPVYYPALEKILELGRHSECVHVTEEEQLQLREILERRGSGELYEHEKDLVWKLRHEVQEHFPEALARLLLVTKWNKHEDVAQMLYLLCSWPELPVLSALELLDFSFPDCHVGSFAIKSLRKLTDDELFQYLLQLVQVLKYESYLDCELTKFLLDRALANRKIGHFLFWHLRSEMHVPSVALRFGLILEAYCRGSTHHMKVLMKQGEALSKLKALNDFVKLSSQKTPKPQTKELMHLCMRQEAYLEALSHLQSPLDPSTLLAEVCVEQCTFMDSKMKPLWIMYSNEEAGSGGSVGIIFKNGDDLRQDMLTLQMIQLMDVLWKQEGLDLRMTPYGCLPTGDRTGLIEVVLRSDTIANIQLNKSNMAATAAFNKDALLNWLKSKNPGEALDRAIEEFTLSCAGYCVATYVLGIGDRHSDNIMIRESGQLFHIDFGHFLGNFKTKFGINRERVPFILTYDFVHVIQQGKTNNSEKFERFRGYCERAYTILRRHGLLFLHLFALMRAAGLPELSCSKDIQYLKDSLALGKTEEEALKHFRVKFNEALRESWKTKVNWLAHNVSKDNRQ
Experimental: Rat-1 cells stably overexpressing a myristoylated form of the catalytic subunit of human phosphoinositide-3 kinase (PI3K) alpha, beta or delta were plated in 384-well plates at a density of 7500 (PI3K alpha), 6200 (PI3K beta), or 4000 (PI3K delta) cells in 30ul complete growth medium (Dulbecco's modified Eagle's medium (DMEM high glucose) supplemented with 10% (v/v) fetal bovine serum, 1% (v/v) MEM non essential amino acids, 10mM HEPES, 2mM L-glutamine, 10 µg/mL puromycin and 1% (v/v) Penicillin/Streptomycin) and were incubated at 37%C / 5%CO2 / 95% humidity for 24h. Compounds were diluted in 384-well compound plates to obtain 8-point serial dilutions for 40 test compounds in 90% DMSO, as well as 4 reference compounds plus 16 high controls and 16 low (inhibited) controls. Predilution plates were prepared by dispensing pipetting 250 nl of compound solutions into 384-well polypropylen plates using a Hummingwell nanoliter dispensor. Compounds were prediluted by the addition of 49.75 ul complete growth medium. 10ul of prediluted compound solution were transferred to the cell plate using a 384-well pipettor, resulting in a final DMSO concentration of 0.11%. […]
For detection of p-AKT(Ser473), the SureFire® p-Akt 1/2 (Ser473) Assay Kit (PerkinElmer, U.S.A) was used. […] The plate was read on an AlphaScreen® compatible plate reader, using standard AlphaScreen® settings.

PI3K delta = target: T2, PI3K delta (Homo sapiens, UniProt O00329); experiment: Enzymatic PI3K delta isoform inhibition (lipid kinase activity, Kinase-Glo luminescence / ATP depletion); format: biochemical
T2 construct: for the full-length p110-d subunit are generated and fused by overlapping PCR; p85 iSH2 (inter SH2 domain) fusion partner (N); His tag (C); made in house; host or cells: baculovirus; Tn5 (Trichoplusia ni) or TiniPro insect cells
T2 sequence (O00329 with tags, fused parts or gaps limits assumed): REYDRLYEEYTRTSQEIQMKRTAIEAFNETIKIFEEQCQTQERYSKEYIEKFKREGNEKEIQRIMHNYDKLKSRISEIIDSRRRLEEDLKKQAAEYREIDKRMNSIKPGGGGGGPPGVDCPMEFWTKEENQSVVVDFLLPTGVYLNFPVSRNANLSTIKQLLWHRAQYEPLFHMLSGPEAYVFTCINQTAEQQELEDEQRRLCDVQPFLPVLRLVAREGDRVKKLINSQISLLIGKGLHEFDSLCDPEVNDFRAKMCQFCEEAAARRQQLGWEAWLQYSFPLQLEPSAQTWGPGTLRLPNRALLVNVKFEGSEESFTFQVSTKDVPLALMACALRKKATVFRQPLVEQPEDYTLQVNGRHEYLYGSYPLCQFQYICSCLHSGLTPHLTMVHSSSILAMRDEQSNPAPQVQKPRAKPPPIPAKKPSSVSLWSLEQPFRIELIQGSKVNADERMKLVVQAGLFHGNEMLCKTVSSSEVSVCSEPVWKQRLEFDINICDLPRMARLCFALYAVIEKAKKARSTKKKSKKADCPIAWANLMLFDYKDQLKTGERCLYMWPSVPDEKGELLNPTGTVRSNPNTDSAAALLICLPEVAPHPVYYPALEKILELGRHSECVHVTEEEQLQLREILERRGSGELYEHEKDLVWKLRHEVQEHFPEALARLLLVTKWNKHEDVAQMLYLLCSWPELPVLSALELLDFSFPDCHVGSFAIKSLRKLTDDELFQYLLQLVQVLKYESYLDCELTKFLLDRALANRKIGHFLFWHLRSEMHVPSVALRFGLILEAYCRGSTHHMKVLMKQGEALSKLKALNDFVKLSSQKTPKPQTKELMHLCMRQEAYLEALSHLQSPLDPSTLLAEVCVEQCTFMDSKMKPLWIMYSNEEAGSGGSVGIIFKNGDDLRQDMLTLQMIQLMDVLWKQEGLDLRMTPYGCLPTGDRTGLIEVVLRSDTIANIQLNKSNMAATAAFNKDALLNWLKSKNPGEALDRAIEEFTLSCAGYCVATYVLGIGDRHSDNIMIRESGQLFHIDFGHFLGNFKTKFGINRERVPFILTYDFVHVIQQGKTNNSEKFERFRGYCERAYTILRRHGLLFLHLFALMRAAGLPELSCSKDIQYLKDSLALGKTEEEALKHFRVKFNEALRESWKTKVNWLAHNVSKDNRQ

Chain of PI3K alpha (P42336 with tags, fused parts or gaps limits assumed): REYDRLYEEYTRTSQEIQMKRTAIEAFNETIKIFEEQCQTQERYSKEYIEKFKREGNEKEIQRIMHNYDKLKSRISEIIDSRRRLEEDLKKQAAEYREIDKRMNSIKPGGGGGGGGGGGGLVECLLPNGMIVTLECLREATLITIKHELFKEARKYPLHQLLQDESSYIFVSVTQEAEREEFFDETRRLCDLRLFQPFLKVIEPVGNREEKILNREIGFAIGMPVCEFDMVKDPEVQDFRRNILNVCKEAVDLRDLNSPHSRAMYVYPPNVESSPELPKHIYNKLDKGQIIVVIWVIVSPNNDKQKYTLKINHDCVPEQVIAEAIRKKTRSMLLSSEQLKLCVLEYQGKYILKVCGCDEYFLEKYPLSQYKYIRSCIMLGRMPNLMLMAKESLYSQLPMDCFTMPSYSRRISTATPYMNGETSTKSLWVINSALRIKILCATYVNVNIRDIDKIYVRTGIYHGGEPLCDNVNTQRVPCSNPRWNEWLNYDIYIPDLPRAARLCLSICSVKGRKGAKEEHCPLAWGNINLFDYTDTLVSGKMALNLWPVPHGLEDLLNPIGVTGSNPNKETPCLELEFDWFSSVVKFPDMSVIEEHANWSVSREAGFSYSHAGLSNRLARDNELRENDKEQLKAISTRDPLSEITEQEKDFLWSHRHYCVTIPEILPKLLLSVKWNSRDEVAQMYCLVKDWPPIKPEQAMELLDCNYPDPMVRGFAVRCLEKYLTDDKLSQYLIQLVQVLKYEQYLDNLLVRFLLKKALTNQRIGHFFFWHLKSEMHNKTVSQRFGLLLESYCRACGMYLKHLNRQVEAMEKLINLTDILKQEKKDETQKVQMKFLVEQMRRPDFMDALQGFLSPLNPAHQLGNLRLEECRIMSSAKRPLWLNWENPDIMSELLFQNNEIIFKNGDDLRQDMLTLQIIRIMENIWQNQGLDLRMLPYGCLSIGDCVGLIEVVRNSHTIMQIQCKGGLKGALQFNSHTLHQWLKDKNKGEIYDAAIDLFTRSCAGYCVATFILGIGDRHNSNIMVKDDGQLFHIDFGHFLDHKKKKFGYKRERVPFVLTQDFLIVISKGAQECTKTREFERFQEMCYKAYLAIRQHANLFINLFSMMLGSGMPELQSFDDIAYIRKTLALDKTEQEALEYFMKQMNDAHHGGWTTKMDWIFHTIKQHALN

COc1ncc(N2CCOc3cnc(O[C@H]4CCN(C(=O)C5CCS(=O)(=O)CC5)C4)cc32)cc1C [Example F1, (1,1-Dioxo-hexahydro-1lambda*6*-thiopyran-4-yl)-{(S)-3-[1-(6-methoxy-5-methyl-pyridin-3-yl)-2,3-dihydro-1H-pyrido[3,4-b][1,4]oxazin-7-yloxy]-pyrrolidin-1-yl}-methanone]
IC50 (PI3K alpha): 109 nM | IC50 (PI3Kδ): 11 nM | IC50 (PI3K delta): 3 nM
